The results in this text go back to patent US9615577B2, “Herbicidally active cyclic dione compounds, or derivatives therefor, substituted by a phenyl which has an alkynyl-containing substituent” (Syngenta Limited, priority 2012, dated 2017).

What all share (assay type): in vivo
For experiment [1], the system named is Echinochloa crus-galli (ECHCG). Put plainly: Test 1B glasshouse assay for herbicidal activity, pre-emergence. To be noted: 480 h, 20 DAA, read-out: percentage phytotoxicity ECHCG. As for the experimental part:
(§1) Seeds of a variety of monocotyledonous and dicotyledonous test plants are sown in standard soil in pots. The plants are cultivated for one day (for pre-emergence) or for about 12 days (range=10-13 days) (for post-emergence) under controlled conditions in a glasshouse (warm climate species at 24/18° C., cool climate species at 20/16° C., both at day/night; 16 hours light; 65% humidity).
(§2) An “instant formulation”, known as the “IF50”, containing 50 g/liter (i.e. 5% w/v) of the “technical” (i.e. unformulated) active ingredient is prepared by dissolving the active ingredient in a mixture of organic solvents and emulsifier, details of which are provided in the Table below. This IF50 is then mixed with a small, variable amount of acetone to aid dissolution, before addition of a 0.2% v/v aqueous solution of the adjuvant X-77 (which is a mixture of alkyl aryl polyoxyethylene glycols and free fatty acids in isopropanol, CAS Registry number 11097-66-8), as the aqueous diluent, to form an aqueous spray solution which contains a predetermined concentration of the active ingredient (which varies depending on the application rate of the active ingredient to the plants) and 0.2% v/v of the adjuvant X-77. This aqueous spray solution is then sprayed onto the plants, after one day's cultivation (for pre-emergence) or after about 12 days' cultivation (for post-emergence).
(§3) The test plants are then grown on, in a glasshouse (greenhouse) under controlled conditions (at either 24/18° C. or 20/16° C. (day/night) as mentioned above; 16 hours light; 65% humidity) and are watered twice daily. Either 15 days after application of the herbicide (15 DAA) (for post-emergence), or 20 days after application of the herbicide (20 DAA) (for pre-emergence), the test plants are evaluated visually, and an assessed percentage phytotoxicity score is given for each herbicidal application on each plant species (where 100%=total damage to plant; 0%=no damage to plant).
Warm climate (“warm season”) grassy monocotyledonous weeds: Setaria faberi (SETFA), SORVU (Sorghum bicolor (L.) Moench ssp. Bicolor, or Sorghum vulgare Pers.), Digitaria sanguinalis (DIGSA), Echinochloa crus-galli (ECHCG), and Brachiaria plantaginea (BRAPL).

Another experiment deals with Lolium perenne (LOLPE). Described as above. Conditions: 480 h, 20 DAA, read-out: percentage phytotoxicity LOLPE. As for the experimental part:
as §1, §2, §3
(§4) Cool climate (“cool season”) grassy monocotyledonous weeds: Alopecurus myosuroides (ALOMY), Avena fatua (AVEFA), Lolium perenne (LOLPE).

Experiment [2] deals with Alopecurus myosuroides (ALOMY). The experiment is described as above. Conditions: 480 h, 20 DAA, read-out: percentage phytotoxicity ALOMY. The procedure: as §1, §2, §3, §4
A further experiment has as its system Avena fatua (AVEFA). Described as above. Conditions: 480 h, 20 DAA, read-out: percentage phytotoxicity AVEFA. The procedure:
as §1, §2, §3, §4

For experiment [3], the system named is Echinochloa crus-galli (ECHCG). Briefly: Test 1B glasshouse assay for herbicidal activity, post-emergence. Conditions: Echinochloa crus-galli; for pest or weed control at 125 g/ha: 125 g/ha application rate; for pest or weed control at 30 g/ha: 30 g/ha application rate. The procedure, abridged: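 Plants grown about 12 days (10–13) in glasshouse (24/18 °C day/night, 16 h light, 65% humidity) then sprayed with IF50 formulation diluted in 0.2% v/v X-77 adjuvant at set application rates. Percent phytotoxicity scored visually 15 days after application (0 = no damage, 100 = total damage).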

Experiment [4] relates to Alopecurus myosuroides (ALOMY). Briefly: Test 1A glasshouse assay for herbicidal activity, post-emergence. To be noted: 312 h, evaluated after 13 days, read-out: percentage phytotoxicity ALOMY. An outline of the steps: (§5)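 Damage is rated by eye as percent phytotoxicity on a 0–100 scale, 13 days after treatment. Compound is sprayed in acetone/water (50:50) with 0.5% Tween 20 onto pots one day (pre-emergence) or eight days (post-emergence) after sowing, with plants kept at 24/16 °C and 14 h light.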

Experiment [5] concerns Amaranthus retroflexus (AMARE). The experiment is described as above. Conditions: 312 h, evaluated after 13 days, read-out: percentage phytotoxicity AMARE. The procedure, abridged:
as §5

Experiment [6] concerns Setaria faberi (SETFA). Described as above. To be noted: 312 h, evaluated after 13 days, read-out: percentage phytotoxicity SETFA. An outline of the steps: as §5
For experiment [7], the system named is Echinochloa crus-galli (ECHCG). Described as above. To be noted: 312 h, evaluated after 13 days, read-out: percentage phytotoxicity ECHCG. The procedure, abridged:
as §5

Experiment [8] relates to Triticum aestivum (TRZAW, winter wheat). Put plainly: Test 1B glasshouse assay for herbicidal activity, pre-emergence. To be noted: 480 h, 20 DAA, read-out: percentage phytotoxicity TRZAW. As for the experimental part:
as §1, §2, §3
(§6) Cool climate crop plants: Triticum aestivum (TRZAW, winter wheat), Brassica napus (BRSNN, rape, also called oilseed rape or rapeseed), Beta vulgaris (BEAVA, sugar beet).

For experiment [9], the system named is Brassica napus (BRSNN, rape). Described as above. Conditions: 480 h, 20 DAA, read-out: percentage phytotoxicity BRSNN. The procedure: as §1, §2, §3, §6
Experiment [10] concerns Beta vulgaris (BEAVA, sugar beet). The description is as above. Conditions: 480 h, 20 DAA, read-out: percentage phytotoxicity BEAVA. As for the experimental part:
as §1, §2, §3, §6

Experiment [11] relates to Digitaria sanguinalis (DIGSA). Briefly: Test 1B glasshouse assay for herbicidal activity, post-emergence. To be noted: 360 h; for pest or weed control at 125 g/ha: 125 g/ha application rate; for pest or weed control at 30 g/ha: 30 g/ha application rate. The procedure, abridged:
(§7)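 Pots of soil were sown and held one day for pre-emergence or about 12 days for post-emergence treatment, then sprayed with an aqueous solution containing 0.2% v/v X-77 adjuvant, prepared from a 50 g/liter IF50 formulation, at rate-dependent concentration. Visual damage scoring followed at 20 or 15 DAA respectively.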

Experiment [12] concerns SORVU (Sorghum bicolor (L.) Moench ssp. Bicolor, or Sorghum vulgare Pers.). The experiment is described as above. To be noted: 360 h; for pest or weed control at 125 g/ha: 125 g/ha application rate; for pest or weed control at 30 g/ha: 30 g/ha application rate. An outline of the steps:
as §7

Experiment [13] has as its system Setaria faberi (SETFA). The description is as above. To be noted: 360 h; for pest or weed control at 125 g/ha: 125 g/ha application rate; for pest or weed control at 30 g/ha: 30 g/ha application rate. An outline of the steps: as §7

The structures appear in SMILES notation.

`CC#Cc1cc(C)c(C2C(=O)CC(c3ccccn3)CC2=O)c(C)c1` (stereo not shown) [Compound A-13]: the pest or weed control at 250 g/ha is 90% in experiment [1]; 100% with Lolium perenne (LOLPE); 80% in [2]; 30% in the experiment with Avena fatua (AVEFA); 100% in experiment [4]; 60% in [5]. In addition, the pest or weed control at 250 g/ha (in the experiment on Setaria faberi (SETFA) [6]; in [7]) was 100% throughout. In addition, the pest or weed control at 125 g/ha (in experiment [3]; in [11]; in experiment [12]; in the experiment on Setaria faberi (SETFA) [13]) was 80% throughout. The pest or weed control at 30 g/ha was 70% in [4], 30% in experiment [5], 90% in the experiment with Setaria faberi (SETFA) [6] and 80% in [7]. Moreover, the plant injury at 250 g/ha amounted to 20% in experiment [8], 70% in experiment [9] and 10% in [10].

In the case of `CC#Cc1cc(C)c(C2C(=O)C3CCC(C3)C2=O)c(C)c1` (stereo not shown) [Compound A-5], the pest or weed control at 500 g/ha in experiment [1] (500 g/ha) was 100%; in the experiment on Lolium perenne (LOLPE) (500 g/ha), 100%; in experiment [2] (500 g/ha) it was 80%; in the experiment with Avena fatua (AVEFA) (500 g/ha), 40%; in [3] (500 g/ha application rate), 100%; in experiment [11] (500 g/ha application rate) it was 100%. Moreover, the pest or weed control at 500 g/ha (in [12] (500 g/ha application rate); in the experiment on Setaria faberi (SETFA) [13] (500 g/ha application rate)) was 100% throughout. In addition, the pest or weed control at 30 g/ha in [3] came out at 100%; in [4], 80%; in experiment [5], 10%; in the experiment with Setaria faberi (SETFA) [6], 70%; in [7], 100%; in [11], 90%. In addition, the pest or weed control at 30 g/ha worked out at 70% in experiment [12] and 80% with Setaria faberi (SETFA) [13]. Besides, the pest or weed control at 60 g/ha turned out to be 100% in experiment [3] (60 g/ha application rate), 100% in [11] (60 g/ha application rate), 80% in experiment [12] (60 g/ha application rate) and 90% in the experiment on Setaria faberi (SETFA) [13] (60 g/ha application rate). The pest or weed control at 125 g/ha (in [3]; in [11]; in experiment [12]; in the experiment with Setaria faberi (SETFA) [13]) was 100% throughout. Moreover, the pest or weed control at 250 g/ha in [4] stood at 100%; in experiment [5], 0%; in the experiment on Setaria faberi (SETFA) [6] it was 100%; in experiment [7] it was 100%. Further, the figures for the plant injury at 500 g/ha in experiment [8] (500 g/ha), in [9] (500 g/ha) and in experiment [10] (500 g/ha) were 20%, 90% and 0%, respectively.

In the case of `CC#Cc1cc(C)c(C2=C(OC(=O)OC)CC(c3ccccn3)CC2=O)c(C)c1` (stereo not shown) [Compound A-14], the pest or weed control at 250 g/ha in experiment [1] was determined as 80%; with Lolium perenne (LOLPE) it was 100%; in experiment [2] it was 80%; with Avena fatua (AVEFA), 70%; in experiment [4], 100%; in experiment [5], 20%. Moreover, the pest or weed control at 250 g/ha (in the experiment on Setaria faberi (SETFA) [6]; in experiment [7]) was 100% in each case. The pest or weed control at 30 g/ha (in experiment [3]; in [11]; in experiment [12]; in the experiment on Setaria faberi (SETFA) [13]) was 80% each time. The pest or weed control at 125 g/ha in experiment [3] was found to be 100%; in experiment [11], 100%; in experiment [12] it was 100%; with Setaria faberi (SETFA) [13], 90%. Besides, the plant injury at 250 g/ha worked out at 40% in experiment [8], 60% in [9] and 30% in experiment [10].

As for `CC#Cc1cc(C)c(C2C(=O)C3CCC(C3)C2=O)c(OC)c1` (stereo not shown) [Compound A-10], the pest or weed control at 125 g/ha in experiment [1] (125 g/ha) worked out at 90%; in the experiment with Lolium perenne (LOLPE) (125 g/ha), 100%; in experiment [2] (125 g/ha), 80%; with Avena fatua (AVEFA) (125 g/ha), 60%; in [3] it was 100%; in [11], 100%. The pest or weed control at 125 g/ha (in experiment [12]; in the experiment on Setaria faberi (SETFA) [13]) was 100% in each case. Also, the pest or weed control at 30 g/ha amounted to 90% in [3], 90% in experiment [11], 100% in experiment [12] and 80% in the experiment on Setaria faberi (SETFA) [13]. Also, the pest or weed control at 250 g/ha in experiment [4] turned out to be 100%; in [5], 50%; with Setaria faberi (SETFA) [6] it was 100%; in experiment [7], 100%. The plant injury at 125 g/ha amounted to 20% in experiment [8] (125 g/ha), 0% in experiment [9] (125 g/ha) and 0% in experiment [10] (125 g/ha).
